# Source: paper PMC8950151, “Synthesis and Evaluation of the Antifungal and Toxicological Activity of Nitrofuran Derivatives” (Pharmaceutics, 2022)
# Where two headings read alike, the source gives them in different places.
# Columns and labels:
# [1] = test system: T. rubrum (ATCC 28289); assay: Susceptibility assay for dermatophytes (CLSI M38-A2, resazurin), MIC90; assay type: cell-based; settings: Trichophyton rubrum, ATCC28289, 96 h, 35 °C
# [2] = test system: C. glabrata (ATCC 90030); assay: Minimum fungicidal concentration (MFC); assay type: cell-based, Candida glabrata; settings: Nakaseomyces glabratus, ATCC90030
# [3] = test system: T. rubrum (ATCC 28289); assay: Minimum fungicidal concentration (MFC); assay type: cell-based, Trichophyton rubrum; settings: Trichophyton rubrum, ATCC28289
# [4] = test system: Cryptococcus neoformans (H99/ATCC 208821); assay: Susceptibility test (CLSI M27-A3 broth microdilution, resazurin readout), MIC90; assay type: cell-based; settings: ATCC208821, 48 h
# [5] = test system: Trichophyton mentagrophytes (ATCC 11481); assay: Minimum fungicidal concentration (MFC); assay type: cell-based; settings: Trichophyton mentagrophytes, ATCC11481; T. mentagrophytes
# [6] = test system: Candida albicans (ATCC 90028); assay: Minimum fungicidal concentration (MFC); assay type: cell-based; settings: ATCC90028, C. albicans
# [7] = test system: Cryptococcus neoformans (H99/ATCC 208821); assay: Minimum fungicidal concentration (MFC); assay type: cell-based; settings: ATCC208821, C. neoformans
# [8] = test system: Trichophyton mentagrophytes (ATCC 11481); assay: Susceptibility assay for dermatophytes (CLSI M38-A2, resazurin), MIC90; assay type: cell-based; settings: Trichophyton mentagrophytes, ATCC11481, 96 h, T. mentagrophytes, 35 °C, read-out: MIC90
# [9] = test system: C. krusei (ATCC 6258); assay: Minimum fungicidal concentration (MFC); assay type: cell-based, Candida krusei; settings: Pichia kudriavzevii, ATCC6258
# [10] = in vitro; settings: human
# [11] = test system: Histoplasma capsulatum (G217-B/ATCC 26032); assay: microbe, parasite or virus in culture; assay type: cell-based; settings: ATCC26032, 144 h
# [12] = test system: Histoplasma capsulatum (G217-B/ATCC 26032); assay: microbe, parasite or virus in culture; assay type: cell-based; settings: ATCC26032
# [13] = test system: Paracoccidioides brasiliensis (Pb 18); assay: microbe, parasite or virus in culture; assay type: cell-based; settings: Paracoccidioides brasiliensis
# [14] = test system: C. glabrata (ATCC 90030); assay: Susceptibility test (CLSI M27-A3 broth microdilution, resazurin readout), MIC90; assay type: cell-based, Candida glabrata; settings: Nakaseomyces glabratus, ATCC90030, 24 h, 37 °C
# [15] = test system: Candida albicans (ATCC 90028); assay: as above; assay type: cell-based; settings: ATCC90028, C. albicans, 24 h, 37 °C
# [16] = test system: A549 (ATCC CCL-185) lung epithelial cell line; assay: Cytotoxicity assay in monolayer by resazurin colorimetric method; assay type: cell-based; settings: Homo sapiens, A549 cells, 72 h
# [17] = test system: C. krusei (ATCC 6258); assay: Susceptibility test (CLSI M27-A3 broth microdilution, resazurin readout), MIC90; assay type: cell-based, Candida krusei; settings: Pichia kudriavzevii, ATCC6258, 24 h
# [18] = in vivo; settings: AU37 [glp-4 (bn2) I, sek-1 (km4) X], Caenorhabditis elegans, C. elegans larvae viability
# Procedure: The experiments were carried out with the mutant strain (AU37 [glp-4 (bn2) I; […]]). The strain was maintained on plates containing nematode growth medium (NGM) seeded with Escherichia coli OP50 at 16 °C. The stage of synchronization of young adults at stage L4 was performed for the toxicity test. About 20 larvae were transferred to each well of 96-well plates containing 100 μL of a medium composed of 60% of 50 mM NaCl; 40% BHI broth; 10 mg/mL cholesterol in ethanol; 200 mg/mL ampicillin and 90 mg/mL kanamycin. Then, 100 μL of dilutions of nitrofuran derivatives (showing the best selectivity index against the fungal species) were added. […] Plates were incubated at 25 °C for 24 h. Survival was assessed by the mobility and shape of the nematode (stick-shaped larvae were considered dead, while sinusoidal larvae were considered alive) under an inverted optical microscope on 40× objective lenses.
smiles,measurement,setting,value
O=C(/C=C/c1ccc([N+](=O)[O-])o1)c1ccccc1 [Compound 8],MIC90,[1],0.98 µg/mL
same,MFC,"[2]; C. glabrata, read-out: MFC",> 250 µg/mL
same,MFC,[3],1.95 µg/mL
same,MIC90,[4],31.2 µg/mL
same,MFC,[5],1.95 µg/mL
same,MFC,[6],> 250 µg/mL
same,MFC,[7],31.2 µg/mL
same,MIC90,[8],0.98 µg/mL
same,MFC,[9],> 250 µg/mL
same,IC50,[10],6.66 µg/mL
same,MIC90,[11],15.6 µg/mL
same,MFC,[12],15.6 µg/mL
same,MFC,[13],1.95 µg/mL
same,MIC90,[14],7.81 µg/mL
same,MIC90,[15],7.8 µg/mL
same,IC50,[16],53.8 µg/mL
same,MIC90,[17],250 µg/mL
O=C(/C=C/c1ccc([N+](=O)[O-])o1)c1ccc(F)cc1 [Compound 9],MIC90,[1],0.98 µg/mL
same,MFC,"[2]; C. glabrata, read-out: MFC",> 250 µg/mL
same,MFC,[3],1.95 µg/mL
same,MIC90,[4],7.81 µg/mL
same,MFC,[5],1.95 µg/mL
same,MFC,[6],31.2 µg/mL
same,MFC,[7],15.6 µg/mL
same,MIC90,[8],1.95 µg/mL
same,MFC,[9],> 250 µg/mL
same,IC50,[10],47.2 µg/mL
same,MIC90,[11],3.9 µg/mL
same,MFC,[12],3.9 µg/mL
same,MFC,[13],1.95 µg/mL
same,MIC90,[14],31.2 µg/mL
same,MIC90,[15],15.6 µg/mL
same,IC50,[16],23.4 µg/mL
same,MIC90,[17],250 µg/mL
O=C(/C=C/c1ccc([N+](=O)[O-])o1)c1ccc(Cl)cc1 [Compound 10],MIC90,[1],3.9 µg/mL
same,MFC,"[2]; C. glabrata, read-out: MFC",> 250 µg/mL
same,MFC,[3],7.81 µg/mL
same,MIC90,[4],250 µg/mL
same,MFC,[5],7.81 µg/mL
same,MFC,[6],> 250 µg/mL
same,MFC,[7],≥ 250 µg/mL
same,MIC90,[8],3.9 µg/mL
same,MFC,[9],> 250 µg/mL
same,IC50,[10],215 µg/mL
same,MIC90,[11],7.81 µg/mL
same,MFC,[12],15.6 µg/mL
same,MFC,[13],0.98 µg/mL
same,MIC90,[14],> 250 µg/mL
same,MIC90,[15],250 µg/mL
same,IC50,[16],38.7 µg/mL
same,MIC90,[17],> 250 µg/mL
O=C(/C=C/c1ccc([N+](=O)[O-])o1)c1ccc(Br)cc1 [Compound 11],MIC90,[1],7.8 µg/mL
same,MFC,"[2]; C. glabrata, read-out: MFC",> 250 µg/mL
same,MFC,[3],15.6 µg/mL
same,MIC90,[4],≥ 250 µg/mL
same,MFC,[5],7.8 µg/mL
same,"viability at 24 h, 250 µg/mL",[18],80%
same,MFC,[6],250 µg/mL
same,MFC,[7],≥ 250 µg/mL
same,MIC90,[8],7.8 µg/mL
same,MFC,[9],> 250 µg/mL
same,IC50,[10],62.6 µg/mL
same,MIC90,[11],0.48 µg/mL
same,MFC,[12],0.48 µg/mL
same,MFC,[13],0.98 µg/mL
same,MIC90,[14],250 µg/mL
same,MIC90,[15],125 µg/mL
same,IC50,[16],12.2 µg/mL
same,MIC90,[17],250 µg/mL
CSc1ccc(C(=O)/C=C/c2ccc([N+](=O)[O-])o2)cc1 [Compound 13],MIC90,[1],0.98 µg/mL
same,MFC,"[2]; C. glabrata, read-out: MFC",> 250 µg/mL
same,MFC,[3],1.95 µg/mL
same,MIC90,[4],≥ 250 µg/mL
same,MFC,[5],0.98 µg/mL
same,MFC,[6],> 250 µg/mL
same,MFC,[7],≥ 250 µg/mL
same,MIC90,[8],0.98 µg/mL
same,MFC,[9],> 250 µg/mL
same,IC50,[10],4.15 µg/mL
same,MIC90,[11],125 µg/mL
same,MFC,[12],125 µg/mL
same,MFC,[13],0.98 µg/mL
same,MIC90,[14],> 250 µg/mL
same,MIC90,[15],> 250 µg/mL
same,IC50,[16],17.9 µg/mL
same,MIC90,[17],> 250 µg/mL
O=C(/C=C/c1ccc([N+](=O)[O-])o1)c1ccc(-n2ccnc2)cc1 [Compound 14],MIC90,[1],1.95 µg/mL
same,MFC,[2],7.81 µg/mL
same,MFC,[3],3.9 µg/mL
same,MIC90,[4],3.9 µg/mL
same,MFC,[5],1.95 µg/mL
same,MFC,[6],62.5 µg/mL
same,MFC,[7],3.9 µg/mL
same,MIC90,[8],1.95 µg/mL
same,MFC,[9],31.2 µg/mL
same,IC50,[10],26.8 µg/mL
same,MIC90,[11],7.81 µg/mL
same,MFC,[12],7.81 µg/mL
same,MFC,[13],1.95 µg/mL
same,MIC90,[14],7.81 µg/mL
same,MIC90,[15],15.6 µg/mL
same,IC50,[16],33.4 µg/mL
same,MIC90,[17],15.6 µg/mL
"O=C(/C=C/c1ccc([N+](=O)[O-])o1)c1cc(F)c(Cl)cc1Cl [Compound 17, (E)-1-(2,4-dichloro-5-fluorophenyl)-3-(5-nitrofuran-2-yl)prop-2-en-1-one]",MIC90,[1],> 250 µg/mL
same,MFC,"[2]; C. glabrata, read-out: MFC",> 250 µg/mL
same,MFC,[3],> 250 µg/mL
same,MIC90,[4],≥ 250 µg/mL
same,MFC,[5],> 250 µg/mL
same,MFC,[6],> 250 µg/mL
same,MFC,[7],≥ 250 µg/mL
same,MIC90,[8],> 250 µg/mL
same,MFC,[9],> 250 µg/mL
same,IC50,[10],1.56 µg/mL
same,MIC90,[11],> 250 µg/mL
same,MFC,[12],> 250 µg/mL
same,MFC,[13],3.9 µg/mL
same,MIC90,[14],> 250 µg/mL
same,MIC90,[15],> 250 µg/mL
same,IC50,[16],68.2 µg/mL
same,MIC90,[17],> 250 µg/mL
